Results: article PMC11249626, “Fluorophore-Labeled Pyrrolones Targeting the Intracellular Allosteric Binding Site of the Chemokine Receptor CCR1” (ACS Pharmacology & Translational Science, 2024)
Like-named read-outs stand apart in the source and are kept apart here.

Legend:
CCR2 = biological target: T1, CCR2 (Homo sapiens, UniProt P41597); assay: NanoBRET competition binding assay for CCR2 based on 7, as previously reported; settings: for inhibition at 20 µM: compound at 20 μM
T1 construct: host or cells: HEK293T, transient
T1 sequence (P41597 1-360 isoform P41597-2): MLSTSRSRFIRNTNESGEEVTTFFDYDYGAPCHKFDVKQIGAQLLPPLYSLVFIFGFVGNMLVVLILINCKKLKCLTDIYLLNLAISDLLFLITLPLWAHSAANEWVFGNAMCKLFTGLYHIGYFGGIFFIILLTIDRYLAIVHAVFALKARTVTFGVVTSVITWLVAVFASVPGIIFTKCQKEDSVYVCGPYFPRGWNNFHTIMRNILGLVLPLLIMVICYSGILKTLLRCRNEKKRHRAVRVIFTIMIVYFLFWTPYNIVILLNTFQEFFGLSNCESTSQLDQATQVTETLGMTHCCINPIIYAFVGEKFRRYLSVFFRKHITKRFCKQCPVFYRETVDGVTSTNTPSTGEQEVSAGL
Source text: With 6 (Figure 1), a first lead structure for intracellular CCR1 inhibition that features an approximately 20-fold CCR1 over CCR2 selectivity was previously discovered by Ortiz Zacarías et al.([33]) In order to discover new chemotypes for selective CCR1 over CCR2 inhibition, we aimed to apply our novel NanoBRET competition binding assay for CCR1 in combination with our recently published CCR2 competition binding assay based on 7.[47] In our first attempt, we screened a small in-house library enriched with intracellular GPCR ligands and structural analogues thereof. […] Additionally, we tested 23 for binding to the IABS of CCR9 and CXCR2 using our recently reported NanoBRET-based assay platform (Figure 6C).[44],[45] In the course of these studies, we detected no binding of 23 to CCR9 and CXCR2 up to a concentration of 20 μM. Since cell lineage-dependent effects have been observed for CCR1 antagonists,[59] we studied the CCR1 over CCR2 selectivity of 23 by using a previously reported radioligand binding assay with membrane preparations from osteosarcoma (U2OS) cells stably expressing human CCR1 or CCR2.[33] […] In agreement with these previous reports,[33] we observed a reduction in CCR1 over CCR2 selectivity when moving from membrane-based binding assays to cell-based functional assays. […] To investigate a potential signaling bias of 23, we tested the compound by means of a NanoBiT miniGi recruitment assay.[60] […] Thus, this indicated no strong signaling bias of 23 (Figures S9E and S10C). To elucidate the SAR of this new scaffold for selective CCR1 over CCR2 inhibition, we synthesized several analogues of 23 (24–40) and tested them by means of our NanoBRET competition binding assays (Schemes S2 and S3, Table 1, Figures 6F and S11). First, we aimed to examine the impact of the stereochemistry of 23 on CCR1 affinity. As for the structurally related pyrrolone 4, large differences in CCR2 affinity between the eutomer 4-[R] and the distomer 4-[S] were described.[61] […] Furthermore, we identified the 4-hydroxyphenethyl group at position 1 of the pyrrolone scaffold as highly important for CCR1 affinity and selectivity. Its presence seems to block CCR2 binding, also when combined with the structural features of the high-affinity CCR2 ligand 5, as exemplified by 24. Especially the 4-hydroxy group at this moiety is essential for CCR1 binding (see 25 and 26). […] In position 5 of the pyrrolone, several aromatic and aliphatic substituents were tolerated (see 31–35).

CCR1 [1] = biological target: T2, CCR1 (Homo sapiens, UniProt P32246); assay: Membrane-based NanoBRET competition assay with 12 (2000 nM) and CCR1_Nluc membranes; type: binding; design: Promega pNLF1-C (Nluc) #CCR010TN00; host or cells: HEK293T, transient (PEI); settings: 12 (2000 nM); for CCR1 inhibition class (n.i.) / % inh. of tracer binding, CCR1: compound at 20 μM
T2 sequence (P32246 1-355): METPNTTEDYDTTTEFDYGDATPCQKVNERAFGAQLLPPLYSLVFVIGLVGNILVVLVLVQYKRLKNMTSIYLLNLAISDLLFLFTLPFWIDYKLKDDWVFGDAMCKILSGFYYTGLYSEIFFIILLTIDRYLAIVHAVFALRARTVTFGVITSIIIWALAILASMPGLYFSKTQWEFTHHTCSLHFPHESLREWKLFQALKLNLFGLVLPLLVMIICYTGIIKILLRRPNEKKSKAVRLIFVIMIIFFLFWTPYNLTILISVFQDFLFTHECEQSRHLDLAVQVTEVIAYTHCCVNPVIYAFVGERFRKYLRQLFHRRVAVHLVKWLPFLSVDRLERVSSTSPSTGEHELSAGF

CCR1 [2] = biological target: T2, CCR1; assay: Live cell NanoBRET binding assay, HEK293T cells expressing CCR1_Nluc; design: Promega pNLF1-C (Nluc) #CCR010TN00; host or cells: HEK293T, transient (PEI); settings: 12 (1000 nM), live HEK293T cells
[3] = read-out: CCR2 inhibition class (n.i.)
[4] = CCR1_Nluc membranes, read-out: Ki, CCR1 (converted)
[5] = read-out: % inh. of tracer binding, CCR2
[6] = CCR1_Nluc membranes, read-out: pKi ± SEM, CCR1 (converted)
[7] = CCR1_Nluc membranes, read-out: Ki, CCR1 (Figure 5B)

inhibition at 20 µM (CCR2; [3]) | Ki (CCR1 [1]; [4]) | Ki (CCR1 [1]; [6]) | Compound | also measured
< 10% | 0.0657 µM | – | O=C(C1=C(O)C(=O)N(CCc2ccc(O)cc2)C1c1ccc(F)cc1)c1ccccc1 (single isomer, unassigned; (+)) [(+)-23] | –
– | 0.216 µM | 0.209 µM | O=C(C1=C(O)C(=O)N(CCc2ccc(O)cc2)C1c1ccc(F)cc1)c1ccccc1 (single isomer, unassigned; (-)) [(-)-23] | inhibition at 20 µM (CCR2; [5]): 27%
– | – | – | CS(=O)(=O)c1cc(C2(NC(=O)c3cncc4c3cnn4-c3ccc(F)cc3)CC2)ccn1 [compound 3, reference compound] | Enhancement of CCR1 binding of 12 (CCR1 [1]; CCR1_Nluc membranes): ~150%
– | 0.0976 µM | – | COCc1cn(CCCC(=O)C2=C(O)C(=O)N(c3ccc(Br)cc3F)C2C2CCCCC2)nn1 (centres unmarked) [compound 10] | –
– | 0.0756 µM | 0.0724 µM | CC(C)C[C@H](CO)Nc1nc(S[C@@H](C)c2ccccc2)nc2nc(N)sc12 [compound 18, reference compound] | Ki (CCR1 [2]; read-out: Ki, live cells): 0.0983 µM; Ki (CCR1 [2]; read-out: pKi ± SEM, live cells (converted)): 0.0933 µM
– | 0.354 µM | – | O=C(O)c1ccc(Oc2ncc(Cl)cc2NS(=O)(=O)c2ccc(Cl)c(C(F)(F)F)c2)cc1 [compound 19, reference compound] | Ki (CCR1 [1]; [7]): 0.35 µM
– | – | 2.24 µM | CC[C@@H](Nc1c(Nc2cccc(C(=O)N(C)C)c2O)c(=O)c1=O)c1ccc(C)o1 [compound 20, reference compound] | Ki (CCR1 [1]; [7]): 2.34 µM
– | – | 2.95 µM | CC(C)(C)c1ccc(S(=O)(=O)Nc2ccc(Cl)cc2C(=O)c2cc[n+]([O-])cc2)cc1 [compound 21, reference compound] | Ki (CCR1 [1]; [7]): 3.13 µM
– | – | 2.63 µM | CC(C)(C)c1ccc(S(=O)(=O)Nc2ccc(Cl)cc2-c2cncnc2N)cc1 [compound 22, reference compound] | Ki (CCR1 [1]; [7]): 2.95 µM
– | – | – | CC(=O)C1=C(O)C(=O)N(CCc2ccc(O)cc2)C1C1CCCCC1 (centres unmarked) [compound 24] | inhibition at 20 µM (CCR2; [5]): 10%; CCR1 inhibition class (n.i.) (CCR1 [1]): n.i. (no inhibition (percentual inhibition at 20 μM < 10%))
< 10% | 0.997 µM | 0.955 µM | O=C(C1=C(O)C(=O)N(CCc2ccccc2)C1c1ccc(F)cc1)c1ccccc1 (centres unmarked) [compound 25] | –
< 10% | 0.952 µM | 0.871 µM | O=C(C1=C(O)C(=O)N(CCc2ccc(F)cc2)C1c1ccc(F)cc1)c1ccccc1 (centres unmarked) [compound 26] | –
< 10% | 0.184 µM | 0.178 µM | O=C(C1=C(O)C(=O)N(CCc2cccc(O)c2)C1c1ccc(F)cc1)c1ccccc1 (centres unmarked) [compound 27] | –
– | 0.291 µM | – | O=C(C1=C(O)C(=O)N(CCc2ccccc2O)C1c1ccc(F)cc1)c1ccccc1 (centres unmarked) [compound 28] | inhibition at 20 µM (CCR2; [5]): 49%
– | 0.13 µM | 0.12 µM | O=C(C1=C(O)C(=O)N(Cc2ccc(O)cc2)C1c1ccc(F)cc1)c1ccccc1 (centres unmarked) [compound 29] | inhibition at 20 µM (CCR2; [5]): 42%
< 10% | – | – | O=C(C1=C(O)C(=O)N(c2ccc(O)cc2)C1c1ccc(F)cc1)c1ccccc1 (centres unmarked) [compound 30] | % inh. of tracer binding, CCR1 (CCR1 [1]): 32% @ 20 μM
– | 0.189 µM | 0.182 µM | O=C(C1=C(O)C(=O)N(CCc2ccc(O)cc2)C1c1ccc(Br)cc1)c1ccccc1 (centres unmarked) [compound 31] | inhibition at 20 µM (CCR2; [5]): 19%
< 10% | 0.195 µM | 0.178 µM | O=C(C1=C(O)C(=O)N(CCc2ccc(O)cc2)C1c1cccc(Br)c1)c1ccccc1 (centres unmarked) [compound 32] | –
– | 0.2 µM | 0.191 µM | O=C(C1=C(O)C(=O)N(CCc2ccc(O)cc2)C1c1ccc(Cl)cc1)c1ccccc1 (centres unmarked) [compound 33] | inhibition at 20 µM (CCR2; [5]): 18%
– | 0.231 µM | 0.219 µM | O=C(C1=C(O)C(=O)N(CCc2ccc(O)cc2)C1C1CCCCC1)c1ccccc1 (centres unmarked) [compound 34] | inhibition at 20 µM (CCR2; [5]): 37%
< 10% | 0.279 µM | 0.257 µM | O=C(C1=C(O)C(=O)N(CCc2ccc(O)cc2)C1c1ccccc1)c1ccccc1 (centres unmarked) [compound 35] | –
< 10% | – | – | O=C(C1=C(O)C(=O)N(CCc2ccc(O)cc2)C1c1ccc(F)cc1)C1CC1 (centres unmarked) [compound 36] | % inh. of tracer binding, CCR1 (CCR1 [1]): 25% @ 20 μM
< 10% | – | – | O=C(C1=C(O)C(=O)N(CCc2ccc(O)cc2)C1c1cccc(Br)c1)C1CC1 (centres unmarked) [compound 37] | CCR1 inhibition class (n.i.) (CCR1 [1]): n.i. (no inhibition (percentual inhibition at 20 μM < 10%))
– | – | – | O=C(C1=C(O)C(=O)N(CCc2ccc(O)cc2)C1c1ccc(F)cc1)c1ccc(O)cc1 (centres unmarked) [compound 38] | inhibition at 20 µM (CCR2; [5]): 19%; % inh. of tracer binding, CCR1 (CCR1 [1]): 42% @ 20 μM
< 10% | – | – | O=C(C1=C(O)C(=O)N(CCc2ccc(O)cc2)C1c1ccc(F)cc1)c1cccc(O)c1 (centres unmarked) [compound 39] | % inh. of tracer binding, CCR1 (CCR1 [1]): 38% @ 20 μM
– | 0.224 µM | – | O=C(C1=C(O)C(=O)N(c2ccc(Br)cc2F)C1c1ccc(F)cc1)c1ccccc1 (centres unmarked) [compound 40] | Ki (CCR2; NanoBRET competition, tracer 7): 7.83 µM
– | – | – | CC(=O)C1=C(O)C(=O)N(c2ccc(Br)cc2)C1c1ccccc1[N+](=O)[O-] (centres unmarked) [compound 41] | % inh. of tracer binding, CCR1 (CCR1 [1]): ≥ 50%
– | – | – | Cc1ccc(S(=O)(=O)Nc2ccc(Cl)cc2C(=O)c2ccccc2)cc1 [compound 42] | % inh. of tracer binding, CCR1 (CCR1 [1]): ≥ 50%
– | – | – | CCL7: orthosteric CCR1 agonist chemokine, also referred to as MCP-3 | Competition with 12 at CCR1 (CCR1 [1]; CCR1_Nluc membranes): no competition
